In US8252781B2, “1,2-diazetidin-3-one derivatives and drugs containing same” (Kowa Company, Ltd., priority 2008, dated 2012) one finds IC50 data, which are given here for 25 compounds.

SMILES strings stand for the structures. Read-outs that look alike come from different tables or passages of the source.

One assay deals with T1, mouse 11β-HSD1 (Mus musculus, UniProt P50172).
T1 construct: The obtained PCR products of about 0.9 kbp, 1.2 kbp, and 0.9 kbp were subcloned into an expression vector pcDNA3.1+/Zeo; expressed in transfected cells
T1 sequence (P50172 whole entry): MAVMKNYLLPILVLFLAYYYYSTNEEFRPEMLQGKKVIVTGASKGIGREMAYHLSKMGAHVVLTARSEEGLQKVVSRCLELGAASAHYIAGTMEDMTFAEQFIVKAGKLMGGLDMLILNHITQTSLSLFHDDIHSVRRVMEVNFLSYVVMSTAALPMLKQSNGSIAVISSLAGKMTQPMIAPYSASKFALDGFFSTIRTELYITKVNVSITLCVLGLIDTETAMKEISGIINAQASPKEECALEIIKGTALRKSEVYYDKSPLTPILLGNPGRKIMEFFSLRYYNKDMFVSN
The assay is described as follows: Enzyme inhibitory activity, mouse 11β-HSD1 (lysate of stably expressing CHO-K1 cells, cortisol by competitive ELISA). The settings on record: Table 2; mouse 11β-HSD1, cell lysate, 37° C. for 1 hour; read-out: m HSD1 in vitro assay (IC50 uM). It is filed as biochemical. As to the method: (§1) 1. Human 11β-HSD1-, Human 11β-HSD2- and Mouse 11β-HSD1-Gene Clonings and Establishment of Stably Expressing Cells
(§2) Human 11β-HSD1-, human 11β-HSD2-, and mouse 11β-HSD1-gene clonings were conducted using as a template a reverse transcription product of human-liver RNA, human-kidney RNA (CELL APPLICATIONS), and mouse-kidney RNA respectively, by means of PCR cloning with reference to nucleotide sequences of Genbank Accession Nos. NM_005525, NM_000196, and NM_008288. The obtained PCR products of about 0.9 kbp, 1.2 kbp, and 0.9 kbp were subcloned into an expression vector pcDNA3.1+/Zeo (Invitrogen).
(§3) Human 11β-HSD1- and human 11β-HSD2-expressing vectors were transfected into human kidney-derived cell line, HEK293 cells, using a transfection reagent, jet PEI (Funakoshi). Mouse 11β-HSD1 was transfected to Chinese hamster ovary-derived cell line, CHO-K1 cells. Selection was conducted with 200-400 μg/mL of zeocine (Invitrogen) to provide stably expressing-cell clones. The stably expressing cells were suspended in buffer solution A (20 mmol/L Tris-HCl, pH 7.4, 250 mmol/L sucrose, 1 mmol/L EGTA, 1 mmol/L EDTA, 1 mmol/L MgCl2), sonicated, and then stored at −80° C.
(§4) 2. Assay of Enzyme Inhibitory Activity
(§5) An enzymatic reaction was conducted using a polystyrene 96-well plate. Each well was added with 1 μL of a test agent dissolved in DMSO and then diluted (0.003 to 3 mmol/L), and further added with 10 μL of cell lysate diluted to a concentration of 0.1 mg/mL to 0.4 mg/mL. Next, 90 μL of buffer solution A containing substrate (100 nmol/L cortisone or cortisol) and coenzyme (400 μmol/L NADPH or NAD+) was added and the mixture was incubated at 37° C. for 1 hour. The enzymatic reaction was stopped by treating at 95° C. for 3 minutes. Cortisol that was present in the reaction solution was determined by a competitive ELISA shown below.
(§6) Anti-rabbit IgG antibody (Chemi-con) diluted to 2 μg/mL with carbonate buffer solution (pH 9.6) was added in 100 μL each to a 96-well immuno plate (Nunc) and immobilized by an incubation at 4° C. overnight. 50 μL of enzymatic reaction solution was put onto the plates, and further, anti-cortisol antibody (Cosmo Bio) and HRP-labeled cortisol (Cosmo Bio), diluted with buffer solution B (25 mmol/L Tris-HCl pH 7.4, 137 mmol/L NaCl, 2.68 mmol/L KCl), were added in 50 μL respectively and incubated at 4° C. overnight. After washed three times with buffer solution B containing 0.05% Tween 20, the plates were allowed to develop color by adding 100 μL of color reagent, TMB (Moss). The color reaction was stopped by 25 μL of 1 mol/L sulfuric acid and the absorbance was determined at 450 nm with a microplate reader (Molecular Device, VersaMax).
(§7) The values of human 11β-HSD1, human 11β-HSD2, and mouse 11β-HSD1 activities were subtracted from 100, and the resultant values were regarded as the respective 11β-HSD inhibition rates of example compounds. […] The comparison of human 11β-HSD1 and human 11β-HSD2 inhibiting activities is shown in Table 1, and the comparison of human 11β-HSD1 and mouse 11β-HSD1 inhibiting activities is shown in Table 2.
In general terms: An ELISA detects its analyte on a solid surface through an enzyme-linked reagent.

In another assay the target is T2, human 11β-HSD1 (Homo sapiens, UniProt P28845).
T2 construct: The obtained PCR products of about 0.9 kbp, 1.2 kbp, and 0.9 kbp were subcloned into an expression vector pcDNA3.1+/Zeo; expressed in transfected cells
T2 sequence (P28845 whole entry): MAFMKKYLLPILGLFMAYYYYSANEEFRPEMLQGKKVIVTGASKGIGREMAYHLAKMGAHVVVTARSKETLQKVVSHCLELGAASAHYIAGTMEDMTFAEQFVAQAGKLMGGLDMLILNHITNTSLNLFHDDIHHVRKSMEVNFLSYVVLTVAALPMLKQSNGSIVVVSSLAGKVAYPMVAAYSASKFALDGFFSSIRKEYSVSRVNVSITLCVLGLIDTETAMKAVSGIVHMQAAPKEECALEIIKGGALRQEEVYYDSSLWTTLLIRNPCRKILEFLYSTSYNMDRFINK
Briefly: Enzyme inhibitory activity, human 11β-HSD1 (lysate of stably expressing HEK293 cells, cortisol by competitive ELISA). The following applies: human 11β-HSD1, cell lysate, 37° C. for 1 hour, read-out: h HSD1 in vitro assay (IC50 uM). It counts as biochemical. As to the method: as §1, §2, §3, §4, §5, §6, §7

The IC50 is the concentration needed to halve the response being measured. Consider `Cc1cccc(C(=O)N2N(C3C4CC5CC(C4)CC3C5)C(=O)C2(C)C)c1` (centres unmarked) [Example 109, 4,4-dimethyl-1-[(3-methylphenyl)carbonyl]-2-(adamantan-2-yl)-1,2-diazetidin-3-one], for which the IC50 came to 0.2 µM on mouse 11β-HSD1 and 0.75 µM on human 11β-HSD1 (Table 2).
Turning to `Cc1cccc(CN2N(C3C4CC5CC(C4)CC3C5)C(=O)C2(C)C)c1` (centres unmarked) [Example 32, 4,4-dimethyl-1-(3-methylbenzyl)-2-(adamantan-2-yl)-1,2-diazetidin-3-one], the figures for the IC50 on mouse 11β-HSD1 and on human 11β-HSD1 (Table 2) were 0.054 µM and 0.25 µM, respectively.
Consider `CC1(C)C(=O)N([C@H]2C3CC4CC2C[C@@](Cl)(C4)C3)N1c1cccc2ccccc12` [Example 257, cis-2-(5-chloroadamantan-2-yl)-4,4-dimethyl-1-(naphthalen-1-yl)-1,2-diazetidin-3-one], for which the IC50 on mouse 11β-HSD1 and at human 11β-HSD1 (Table 1) was 0.24 µM each time.
As for `COc1cccc(CN2N(C3C4CC5CC(C4)CC3C5)C(=O)C2(C)C)c1` (centres unmarked) [Example 54, 1-(3-methoxybenzyl)-4,4-dimethyl-2-(adamantan-2-yl)-1,2-diazetidin-3-one], the IC50 at mouse 11β-HSD1 amounted to 0.036 µM; on human 11β-HSD1 (Table 2) it was 0.3 µM.
As to `CC1(C)C(=O)N([C@H]2C3CC4CC2C[C@](O)(C4)C3)N1Cc1ccccc1C(F)(F)F` [Example 66, trans-2-(5-hydroxyadamantan-2-yl)-4,4-dimethyl-1-[2-(trifluoromethyl)benzyl]-1,2-diazetidin-3-one], the results for the IC50 on mouse 11β-HSD1 and at human 11β-HSD1 (Table 1) were 0.57 µM and 0.09 µM, respectively.
With `CC1(C)C(=O)N([C@H]2C3CC4CC2C[C@@](O)(C4)C3)N1c1cccc2ccccc12` [Example 247, cis-2-(5-hydroxyadamantan-2-yl)-4,4-dimethyl-1-(naphthalen-1-yl)-1,2-diazetidin-3-one], the IC50 is 0.26 µM at mouse 11β-HSD1 and 0.027 µM on human 11β-HSD1 (Table 1).
Consider `CC1(C)C(=O)N([C@H]2C3CC4CC2C[C@](Cl)(C4)C3)N1c1ccc(F)c2ccccc12` [Example 255, trans-2-(5-chloroadamantan-2-yl)-1-(4-fluoronaphthalen-1-yl)-4,4-dimethyl-1,2-diazetidin-3-one], for which the IC50 is 0.18 µM at mouse 11β-HSD1 and 0.003 µM on human 11β-HSD1 (Table 1).
For `CC1(C)C(=O)N([C@H]2C3CC4CC2C[C@](Cl)(C4)C3)N1c1cccc2ccccc12` [Example 254, trans-2-(5-chloroadamantan-2-yl)-4,4-dimethyl-1-(naphthalen-1-yl)-1,2-diazetidin-3-one], the IC50 at mouse 11β-HSD1 is 0.075 µM; at human 11β-HSD1 (Table 1), 0.012 µM.
As to `CC1(C)C(=O)N(C2C3CC4CC(C3)CC2C4)N1c1ccc(N)cc1` (centres unmarked) [Example 183, 1-(4-aminophenyl)-4,4-dimethyl-2-(adamantan-2-yl)-1,2-diazetidin-3-one], the IC50 on mouse 11β-HSD1 worked out at 0.76 µM; at human 11β-HSD1 (Table 2), 0.057 µM.
In the case of `Cc1ccc(C(=O)N2N(C3C4CC5CC(C4)CC3C5)C(=O)C2(C)C)cc1` (centres unmarked) [Example 114, 4,4-dimethyl-1-[(4-methylphenyl)carbonyl]-2-(adamantan-2-yl)-1,2-diazetidin-3-one], the IC50 on mouse 11β-HSD1 was 0.11 µM; at human 11β-HSD1 (Table 2), 0.54 µM.
Regarding `CC1(C)C(=O)N(C2C3CC4CC(C3)CC2C4)N1Cc1ccccc1Cl` (centres unmarked) [Example 27, 1-(2-chlorobenzyl)-4,4-dimethyl-2-(adamantan-2-yl)-1,2-diazetidin-3-one], the IC50 on mouse 11β-HSD1 was determined as 0.094 µM; at human 11β-HSD1 (Table 2), 0.03 µM.
As to `CC1(C)C(=O)N(C2CC3CCC2C3)N1c1cccc(Cl)c1Cl` (centres unmarked) [Example 224, 2-(bicyclo[2.2.1]heptan-2-yl)-1-(2,3-dichlorophenyl)-4,4-dimethyl-1,2-diazetidin-3-one], the concentration for half-maximal inhibition (IC50) on mouse 11β-HSD1 is 0.34 µM; on human 11β-HSD1 (Table 1), 0.044 µM.
Turning to `CC1(C)C(=O)N(C2C3CC4CC(C3)CC2C4)N1Cc1ccccc1` (centres unmarked) [Example 12, 1-benzyl-4,4-dimethyl-2-(adamantan-2-yl)-1,2-diazetidin-3-one], the IC50 amounted to 0.023 µM at mouse 11β-HSD1 and 0.047 µM on human 11β-HSD1 (Table 2).
Take `CC1(C)C(=O)N([C@H]2C3CC4CC2C[C@](O)(C4)C3)N1c1cccc2ccccc12` [Example 236, trans-2-(5-hydroxyadamantan-2-yl)-4,4-dimethyl-1-(naphthalen-1-yl)-1,2-diazetidin-3-one]: the figures for the IC50 at mouse 11β-HSD1 and at human 11β-HSD1 (Table 1) were 0.31 µM and 0.095 µM, respectively.
On to `COc1ccccc1N1N(C2C3CC4CC(C3)CC2C4)C(=O)C1(C)C` (centres unmarked) [Example 205, 1-(2-methoxyphenyl)-4,4-dimethyl-2-(adamantan-2-yl)-1,2-diazetidin-3-one], for which the IC50 was 0.2 µM at mouse 11β-HSD1 and 0.1 µM at human 11β-HSD1 (Table 1).
`CC1(C)C(=O)N(C2C3CC4CC(C3)CC2C4)N1Cc1cccc(Cl)c1F` (centres unmarked) [Example 59, 1-(3-chloro-2-fluorobenzyl)-4,4-dimethyl-2-(adamantan-2-yl)-1,2-diazetidin-3-one]: the IC50 at mouse 11β-HSD1 is 0.064 µM; on human 11β-HSD1 (Table 2), 0.25 µM.
Regarding `CC1(C)C(=O)N(C2C3CC4CC(C3)CC2C4)N1Cc1cccc(F)c1` (centres unmarked) [Example 22, 1-(3-fluorobenzyl)-4,4-dimethyl-2-(adamantan-2-yl)-1,2-diazetidin-3-one], the IC50 at mouse 11β-HSD1 is 0.079 µM; at human 11β-HSD1 (Table 2), 0.64 µM.
The matching figures for `Cc1cccc(N2N(C3C4CC5CC(C4)CC3C5)C(=O)C2(C)C)c1C` (centres unmarked) [Example 207, 1-(2,3-dimethylphenyl)-4,4-dimethyl-2-(adamantan-2-yl)-1,2-diazetidin-3-one]: 0.054 µM and 0.61 µM.
Taken in the same sequence, the figures for `CC1(C)C(=O)N(C2C3CC4CC(C3)CC2C4)N1Cc1ccc(Br)cc1` (centres unmarked) [Example 53, 1-(4-bromobenzyl)-4,4-dimethyl-2-(adamantan-2-yl)-1,2-diazetidin-3-one] were 0.06 µM and 0.35 µM.
Take `CC1(C)C(=O)N([C@H]2C3CC4CC2C[C@](O)(C4)C3)N1Cc1cc(F)ccc1Cl` [Example 67, trans-1-(2-chloro-5-fluorobenzyl)-2-(5-hydroxyadamantan-2-yl)-4,4-dimethyl-1,2-diazetidin-3-one]: the IC50 was 0.29 µM at mouse 11β-HSD1 and 0.12 µM on human 11β-HSD1 (Table 2).
For the compound `Cc1cccc(C(=O)N2N(C3CCCCCCC3)C(=O)C2(C)C)c1` [Example 151, 2-cyclooctyl-4,4-dimethyl-1-[(3-methylphenyl)carbonyl]-1,2-diazetidin-3-one], the IC50 at mouse 11β-HSD1 worked out at 0.3 µM; at human 11β-HSD1 (Table 1), 0.81 µM.
As for `CC1(C)C(=O)N([C@H]2C3CC4CC2C[C@](O)(C4)C3)N1c1ccccc1O` [Example 233, trans-1-(2-hydroxyphenyl)-2-(5-hydroxyadamantan-2-yl)-4,4-dimethyl-1,2-diazetidin-3-one], the IC50 on mouse 11β-HSD1 was found to be 0.27 µM; on human 11β-HSD1 (Table 2), 0.18 µM.
In the case of `CC1(C)C(=O)N(C2CCCCCCC2)N1C(=O)c1ccccc1N` [Example 153, 1-[(2-aminophenyl)carbonyl]-2-cyclooctyl-4,4-dimethyl-1,2-diazetidin-3-one], the values for the IC50 at mouse 11β-HSD1 and at human 11β-HSD1 (Table 1) were 0.032 µM and 0.14 µM, respectively.
Turning to `CC1(C)C(=O)N(C2C3CC4CC(C3)CC2C4)N1Cc1cccc(Cl)c1` (centres unmarked) [Example 28, 1-(3-chlorobenzyl)-4,4-dimethyl-2-(adamantan-2-yl)-1,2-diazetidin-3-one], the half-maximal inhibitory concentration (IC50) turned out to be 0.073 µM at mouse 11β-HSD1 and 0.44 µM at human 11β-HSD1 (Table 2).
Consider `COCOc1ccccc1N1N([C@H]2C3CC4CC2C[C@](Cl)(C4)C3)C(=O)C1(C)C` [Example 252, trans-2-(5-chloroadamantan-2-yl)-1-[2-(methoxymethoxy)phenyl]-4,4-dimethyl-1,2-diazetidin-3-one], for which the IC50 at mouse 11β-HSD1 worked out at 0.24 µM; at human 11β-HSD1 (Table 1), 0.034 µM.
